Laboratory results reported in publication PMC10905675, “INX-315, a Selective CDK2 Inhibitor, Induces Cell Cycle Arrest and Senescence in Solid Tumors” (Cancer Discovery, 2023).
Where two headings read alike, the source gives them in different places.

Tests used:
[1] = tested on: OVCAR3 cells; test: Cell cycle flow cytometry; assay type: cell-based; conditions: 24 hours, as little as 30–100 nmol/L
[2] = target: T1, PKMYT1 (Homo sapiens, UniProt Q99640); test: SelectScreen LanthaScreen Binding; conditions: INX-0315 at 100nM
T1 construct: purchased Thermo Fisher Scientific SelectScreen (plus Nanosyn / Reaction Biology for CDK/cyclin lines)
T1 sequence (Q99640 whole entry): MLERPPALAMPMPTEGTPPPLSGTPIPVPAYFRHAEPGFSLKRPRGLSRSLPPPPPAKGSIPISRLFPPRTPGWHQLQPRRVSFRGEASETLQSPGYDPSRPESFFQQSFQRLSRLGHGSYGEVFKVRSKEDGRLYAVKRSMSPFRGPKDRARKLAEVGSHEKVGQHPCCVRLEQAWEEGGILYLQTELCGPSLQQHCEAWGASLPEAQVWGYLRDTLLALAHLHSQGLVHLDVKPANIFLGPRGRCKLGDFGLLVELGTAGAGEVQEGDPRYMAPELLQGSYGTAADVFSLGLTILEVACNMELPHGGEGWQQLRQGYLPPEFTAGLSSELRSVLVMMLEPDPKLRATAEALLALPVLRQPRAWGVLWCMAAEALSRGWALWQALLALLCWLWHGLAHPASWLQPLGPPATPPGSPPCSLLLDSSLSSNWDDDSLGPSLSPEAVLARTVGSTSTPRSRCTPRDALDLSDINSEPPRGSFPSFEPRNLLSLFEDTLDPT
Procedure, shortened: (§1)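 Both platform types ran at predefined settings. Inhibitor was applied first at 100 nmol/L (1% DMSO), later in ten-point titrations spanning 1 µmol/L to 0.0495 nmol/L.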

[3] = target: T2, MAP4K3 (GLK) (Homo sapiens, UniProt Q8IVH8); test: SelectScreen LanthaScreen Binding; conditions: INX-0315 at 100nM
T2 construct: purchased Thermo Fisher Scientific SelectScreen (plus Nanosyn / Reaction Biology for CDK/cyclin lines)
T2 sequence (Q8IVH8 whole entry): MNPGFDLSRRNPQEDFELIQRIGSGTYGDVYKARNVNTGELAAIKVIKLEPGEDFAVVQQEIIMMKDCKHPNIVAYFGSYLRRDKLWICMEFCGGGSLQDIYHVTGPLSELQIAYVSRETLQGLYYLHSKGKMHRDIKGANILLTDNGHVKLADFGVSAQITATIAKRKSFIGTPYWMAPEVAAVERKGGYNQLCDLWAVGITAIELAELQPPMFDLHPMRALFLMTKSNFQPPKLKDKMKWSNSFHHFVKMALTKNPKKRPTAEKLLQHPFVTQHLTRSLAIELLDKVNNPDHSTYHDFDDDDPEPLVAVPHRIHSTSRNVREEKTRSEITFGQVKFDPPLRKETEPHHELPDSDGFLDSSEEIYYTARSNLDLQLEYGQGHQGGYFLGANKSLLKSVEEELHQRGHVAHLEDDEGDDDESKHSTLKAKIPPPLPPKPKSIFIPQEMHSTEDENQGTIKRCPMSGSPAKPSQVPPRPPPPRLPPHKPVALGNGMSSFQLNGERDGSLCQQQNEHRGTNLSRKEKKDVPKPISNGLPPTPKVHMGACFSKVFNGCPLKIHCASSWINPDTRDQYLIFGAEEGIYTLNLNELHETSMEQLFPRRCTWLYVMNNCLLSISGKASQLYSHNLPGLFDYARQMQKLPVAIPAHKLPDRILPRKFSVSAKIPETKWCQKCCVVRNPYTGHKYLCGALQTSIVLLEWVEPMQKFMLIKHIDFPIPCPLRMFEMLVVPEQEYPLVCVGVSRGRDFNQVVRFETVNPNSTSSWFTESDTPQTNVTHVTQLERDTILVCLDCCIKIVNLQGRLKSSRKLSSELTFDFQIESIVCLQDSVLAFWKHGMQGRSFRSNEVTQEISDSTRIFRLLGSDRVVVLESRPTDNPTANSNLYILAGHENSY
Procedure, shortened: as §1

[4] = target: T3, KIT N822K (Homo sapiens, UniProt P10721, N822K); test: SelectScreen LanthaScreen Binding; conditions: INX-0315 at 100nM
T3 construct: purchased Thermo Fisher Scientific SelectScreen (plus Nanosyn / Reaction Biology for CDK/cyclin lines)
Procedure, shortened: as §1

[5] = target: T4, DAPK2 (Homo sapiens, UniProt Q9UIK4); test: SelectScreen LanthaScreen Binding; conditions: INX-0315 at 100nM
T4 construct: purchased Thermo Fisher Scientific SelectScreen (plus Nanosyn / Reaction Biology for CDK/cyclin lines)
T4 sequence (Q9UIK4 whole entry): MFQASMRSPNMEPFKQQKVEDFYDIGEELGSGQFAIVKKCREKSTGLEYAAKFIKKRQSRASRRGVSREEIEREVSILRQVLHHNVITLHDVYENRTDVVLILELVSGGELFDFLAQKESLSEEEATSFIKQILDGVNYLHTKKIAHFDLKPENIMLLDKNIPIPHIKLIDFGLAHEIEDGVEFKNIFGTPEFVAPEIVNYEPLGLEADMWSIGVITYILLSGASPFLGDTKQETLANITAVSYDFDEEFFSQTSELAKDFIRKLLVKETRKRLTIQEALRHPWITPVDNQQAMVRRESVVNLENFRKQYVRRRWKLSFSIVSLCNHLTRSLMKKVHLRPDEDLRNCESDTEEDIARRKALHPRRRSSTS
Procedure, shortened: as §1

[6] = target: T5, MERTK (cMER) A708S (Homo sapiens, UniProt Q12866, A708S); test: SelectScreen LanthaScreen Binding; conditions: INX-0315 at 100nM
T5 construct: purchased Thermo Fisher Scientific SelectScreen (plus Nanosyn / Reaction Biology for CDK/cyclin lines)
Procedure, shortened: as §1

[7] = target: T6, MAP4K1 (HPK1) (Homo sapiens, UniProt Q92918); test: SelectScreen LanthaScreen Binding; conditions: INX-0315 at 100nM
T6 construct: purchased Thermo Fisher Scientific SelectScreen (plus Nanosyn / Reaction Biology for CDK/cyclin lines)
T6 sequence (Q92918 whole entry): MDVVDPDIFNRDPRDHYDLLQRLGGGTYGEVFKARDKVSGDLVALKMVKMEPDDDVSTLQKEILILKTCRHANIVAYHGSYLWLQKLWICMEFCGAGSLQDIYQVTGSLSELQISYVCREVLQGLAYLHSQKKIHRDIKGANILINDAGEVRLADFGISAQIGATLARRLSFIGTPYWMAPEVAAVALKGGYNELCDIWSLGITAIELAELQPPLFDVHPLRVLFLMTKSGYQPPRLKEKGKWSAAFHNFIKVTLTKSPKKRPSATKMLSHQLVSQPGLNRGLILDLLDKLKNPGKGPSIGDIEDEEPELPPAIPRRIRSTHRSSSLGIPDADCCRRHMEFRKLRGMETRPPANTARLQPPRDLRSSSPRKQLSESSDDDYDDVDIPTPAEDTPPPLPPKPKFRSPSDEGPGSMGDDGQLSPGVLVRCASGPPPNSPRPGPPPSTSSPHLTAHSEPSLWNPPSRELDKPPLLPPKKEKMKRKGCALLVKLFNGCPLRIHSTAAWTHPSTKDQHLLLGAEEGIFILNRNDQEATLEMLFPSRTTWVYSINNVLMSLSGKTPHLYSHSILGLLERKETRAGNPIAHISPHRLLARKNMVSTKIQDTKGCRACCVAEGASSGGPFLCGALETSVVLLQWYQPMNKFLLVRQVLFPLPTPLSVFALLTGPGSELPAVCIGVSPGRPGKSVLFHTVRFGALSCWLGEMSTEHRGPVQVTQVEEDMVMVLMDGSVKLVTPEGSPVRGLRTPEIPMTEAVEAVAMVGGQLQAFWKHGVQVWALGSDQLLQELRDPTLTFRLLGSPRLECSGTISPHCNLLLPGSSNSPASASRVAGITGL
Procedure, shortened: as §1

[8] = target: T7, TEK (TIE2) Y1108F (Homo sapiens, UniProt Q02763, Y1108F); test: SelectScreen LanthaScreen Binding; conditions: INX-0315 at 100nM
T7 construct: purchased Thermo Fisher Scientific SelectScreen (plus Nanosyn / Reaction Biology for CDK/cyclin lines)
Procedure, shortened: as §1

[9] = target: T8, MAP3K10 (MLK2) (Homo sapiens, UniProt Q02779); test: SelectScreen LanthaScreen Binding; conditions: INX-0315 at 100nM
T8 construct: purchased Thermo Fisher Scientific SelectScreen (plus Nanosyn / Reaction Biology for CDK/cyclin lines)
T8 sequence (Q02779 whole entry): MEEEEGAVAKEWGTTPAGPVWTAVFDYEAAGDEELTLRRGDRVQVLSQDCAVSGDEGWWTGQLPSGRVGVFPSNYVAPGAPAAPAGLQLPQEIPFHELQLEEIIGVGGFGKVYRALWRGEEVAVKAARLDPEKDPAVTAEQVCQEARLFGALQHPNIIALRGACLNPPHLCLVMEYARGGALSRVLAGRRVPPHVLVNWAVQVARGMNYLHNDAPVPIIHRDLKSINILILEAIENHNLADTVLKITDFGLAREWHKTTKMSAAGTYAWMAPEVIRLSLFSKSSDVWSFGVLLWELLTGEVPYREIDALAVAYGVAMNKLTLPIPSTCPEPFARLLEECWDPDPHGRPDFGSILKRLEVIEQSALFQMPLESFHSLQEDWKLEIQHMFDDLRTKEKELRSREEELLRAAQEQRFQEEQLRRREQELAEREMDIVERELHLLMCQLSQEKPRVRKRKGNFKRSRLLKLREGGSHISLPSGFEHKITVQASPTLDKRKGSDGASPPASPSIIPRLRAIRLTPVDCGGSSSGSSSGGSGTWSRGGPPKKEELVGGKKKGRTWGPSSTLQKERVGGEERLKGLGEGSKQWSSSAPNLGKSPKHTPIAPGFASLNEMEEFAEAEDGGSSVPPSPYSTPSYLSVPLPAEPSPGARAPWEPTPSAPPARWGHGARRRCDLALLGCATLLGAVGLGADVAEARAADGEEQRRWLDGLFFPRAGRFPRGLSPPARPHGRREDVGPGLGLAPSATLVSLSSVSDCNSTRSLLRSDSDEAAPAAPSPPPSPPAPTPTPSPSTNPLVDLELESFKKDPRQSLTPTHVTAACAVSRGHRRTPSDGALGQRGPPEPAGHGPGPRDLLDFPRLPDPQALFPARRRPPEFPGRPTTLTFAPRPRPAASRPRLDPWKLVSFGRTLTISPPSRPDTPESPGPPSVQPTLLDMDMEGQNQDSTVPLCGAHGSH
Procedure, shortened: as §1

[10] = target: T9, NUAK2 (Homo sapiens, UniProt Q9H093); test: SelectScreen LanthaScreen Binding; conditions: INX-0315 at 100nM
T9 construct: purchased Thermo Fisher Scientific SelectScreen (plus Nanosyn / Reaction Biology for CDK/cyclin lines)
T9 sequence (Q9H093 whole entry): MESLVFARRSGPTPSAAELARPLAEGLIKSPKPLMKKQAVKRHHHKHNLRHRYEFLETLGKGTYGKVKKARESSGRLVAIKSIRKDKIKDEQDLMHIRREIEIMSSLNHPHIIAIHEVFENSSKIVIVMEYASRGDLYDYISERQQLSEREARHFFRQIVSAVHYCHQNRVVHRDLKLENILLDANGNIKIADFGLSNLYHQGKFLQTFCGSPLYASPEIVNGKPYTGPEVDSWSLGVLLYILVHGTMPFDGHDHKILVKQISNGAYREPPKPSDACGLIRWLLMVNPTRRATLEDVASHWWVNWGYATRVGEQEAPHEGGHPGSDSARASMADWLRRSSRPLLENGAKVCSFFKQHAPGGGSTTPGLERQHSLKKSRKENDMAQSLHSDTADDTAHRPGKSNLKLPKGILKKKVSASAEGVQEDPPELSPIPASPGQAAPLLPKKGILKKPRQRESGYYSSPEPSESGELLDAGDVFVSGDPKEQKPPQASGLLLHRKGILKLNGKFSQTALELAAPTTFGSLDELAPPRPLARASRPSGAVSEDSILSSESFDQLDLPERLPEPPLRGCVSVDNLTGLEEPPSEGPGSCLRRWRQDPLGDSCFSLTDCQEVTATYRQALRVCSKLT
Procedure, shortened: as §1

[11] = target: T10, ERN1 (Homo sapiens, UniProt O75460); test: SelectScreen LanthaScreen Binding; conditions: INX-0315 at 100nM
T10 construct: purchased Thermo Fisher Scientific SelectScreen (plus Nanosyn / Reaction Biology for CDK/cyclin lines)
Procedure, shortened: as §1

[12] = target: T11, EGFR (ErbB1) d747-749 A750P (Homo sapiens, UniProt P00533, A750P/DEL747-749); test: SelectScreen LanthaScreen Binding; conditions: INX-0315 at 100nM
T11 construct: purchased Thermo Fisher Scientific SelectScreen (plus Nanosyn / Reaction Biology for CDK/cyclin lines)
Procedure, shortened: as §1

[13] = pKa; assay type: physicochemical
[14] = target: T12, PIK3C2G (PI3K-C2 gamma) (Homo sapiens, UniProt O75747); test: SelectScreen Adapta; assay type: biochemical; conditions: INX-0315 at 100nM
T12 construct: purchased Thermo Fisher Scientific SelectScreen (plus Nanosyn / Reaction Biology for CDK/cyclin lines)
Text: (§2) INX-315 was first evaluated in the SelectScreen Biochemical Kinase Profiling at Thermo Fisher Scientific (Madison, WI). The primary screen consisted of INX-315 dosed at a single concentration of 100 nmol/L in 1% DMSO across each platform within the SelectScreen array of assays, LanthaScreen Eu Kinase Binding Assay; AdaptaScreen; and Z'LyteScreen using preestablished conditions at Thermo Fisher Scientific as shown in Supplementary Table S2. […] The follow-up screen consisted of 10-point dose–response curves for INX-315 from 1 µmol/L to 0.0495 nmol/L.

[15] = target: T13, PI4KA (PI4K alpha) (Homo sapiens, UniProt P42356); test: SelectScreen Adapta; assay type: biochemical; conditions: INX-0315 at 100nM
T13 construct: purchased Thermo Fisher Scientific SelectScreen (plus Nanosyn / Reaction Biology for CDK/cyclin lines)
Text: as §2

[16] = target: T14, CDK4/cyclin D1 (Homo sapiens, UniProt P11802); test: SelectScreen Adapta; assay type: biochemical; conditions: INX-0315 at 100nM
T14 construct: purchased ThermoFisher PV4400
Text: as §2

[17] = target: T15, CHUK (IKK alpha) (Homo sapiens, UniProt O15111); test: SelectScreen Adapta; assay type: biochemical; conditions: INX-0315 at 100nM
T15 construct: purchased Thermo Fisher Scientific SelectScreen (plus Nanosyn / Reaction Biology for CDK/cyclin lines)
T15 sequence (O15111 whole entry): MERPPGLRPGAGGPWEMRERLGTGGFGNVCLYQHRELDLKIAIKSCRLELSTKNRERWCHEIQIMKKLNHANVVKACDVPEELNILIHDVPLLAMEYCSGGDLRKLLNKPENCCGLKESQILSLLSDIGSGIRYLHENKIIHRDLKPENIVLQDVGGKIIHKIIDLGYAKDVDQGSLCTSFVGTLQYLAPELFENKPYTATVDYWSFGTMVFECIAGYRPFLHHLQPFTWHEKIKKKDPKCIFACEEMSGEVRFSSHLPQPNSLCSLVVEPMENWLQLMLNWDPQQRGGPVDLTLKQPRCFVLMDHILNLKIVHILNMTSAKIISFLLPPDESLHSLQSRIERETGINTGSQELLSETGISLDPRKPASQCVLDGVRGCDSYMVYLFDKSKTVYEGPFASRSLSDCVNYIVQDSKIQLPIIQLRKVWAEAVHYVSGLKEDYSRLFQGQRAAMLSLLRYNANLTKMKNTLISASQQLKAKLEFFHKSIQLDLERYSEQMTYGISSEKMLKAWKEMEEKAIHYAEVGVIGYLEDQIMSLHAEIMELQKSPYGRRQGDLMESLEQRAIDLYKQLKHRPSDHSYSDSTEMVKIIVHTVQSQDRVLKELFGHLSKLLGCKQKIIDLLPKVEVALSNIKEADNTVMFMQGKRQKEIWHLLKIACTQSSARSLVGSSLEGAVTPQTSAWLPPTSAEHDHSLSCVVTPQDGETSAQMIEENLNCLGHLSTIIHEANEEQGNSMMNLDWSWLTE
Text: as §2

[18] = tested on: MCF7 Abema-resistant; test: Cell number dose-response; assay type: cell-based; conditions: Homo sapiens, MCF7, read-out: IC50 (nmol/L): MCF7
Text: (§3) MCF7 abemaciclib-resistant cells were generated by continuous treatment with abemaciclib at a concentration of 250 nmol/L for 72 days, followed by 500 nmol/L for 48 days. MCF7 fulvestrant-resistant cells were generated by continuous treatment of 100 nmol/L Fulvestrant for 125 days. MCF7 abemaciclib/fulvestrant-resistant cells were generated by treating abemaciclib-resistant cells continuously with 100 nmol/L fulvestrant for 137 days. T47D abemaciclib-resistant lines were generated by continuous treatment with abemaciclib at a concentration of 500 nmol/L for 73 days. T47D fulvestrant–resistant cells were generated by continuous treatment with 100 nmol/L fulvestrant for 68 days. T47D abemaciclib/fulvestrant-resistant cells were generated by treating abemaciclib-resistant cells with continuous treatment of 100 nmol/L Fulvestrant for 60 days. Resistant cell lines were cultured in medium containing drug(s) that the line is resistant to and further authenticated using short tandem repeat profiling.
(§4) An exception to this is MCF7PDRCl5-1 cells which were first cultured for 5 days without palbociclib then plated as described. MCF7PDRCl5-1 cells were treated with either a dose curve of the indicated CDK4/6i or a dose curve of INX-315 + 1 µmol/L of the indicated CDK4/6i. Cell viability was determined using the CellTiter-Glo assay (Promega, G9241) following manufacturer's instructions. Plates were processed on either BioTek Synergy2 multi-mode (Agilent) or ClarioSTAR (BMG Labtech) plate readers. T47D and MCF7 cells were seeded into […] plates using BioTek 406 (Aglient) and treated with a ten-point dose concentration from 10 µmol/L to 0.3 nmol/L of INX-315 for 2× doubling times. Plates were fixed with 4% PFA and stained with Rhodamine-Phalloidin (Bio-Trend, 00027) and DAPI (5 mg/mL, Invitrogen, catalog no. D1306). Plates were imaged using CellInsight CX7 LZR and DAPI-positive cells were counted using Thermo Fisher Scientific HCS Studio Cell Analysis Software.

[19] = tested on: T47D Fulv-resistant; test: Cell number dose-response; assay type: cell-based; conditions: Homo sapiens, read-out: IC50 (nmol/L): T47D
Text: as §3, §4

[20] = tested on: MCF7 Fulv-resistant; test: Cell number dose-response; assay type: cell-based; conditions: Homo sapiens, MCF7, read-out: IC50 (nmol/L): MCF7
Text: as §3, §4

[21] = tested on: MCF7 Parent; test: Cell number dose-response; assay type: cell-based; conditions: Homo sapiens
Text: as §3, §4

[22] = tested on: T47D Abema-resistant; test: Cell number dose-response; assay type: cell-based; conditions: Homo sapiens, read-out: IC50 (nmol/L): T47D
Text: as §3, §4

[23] = tested on: T47D Parent; test: Cell number dose-response; assay type: cell-based; conditions: Homo sapiens
Text: as §3, §4

[24] = tested on: five cell lines with CCNE1 amplification (ovarian cancer); test: CellTiter Glo viability assay; assay type: cell-based; conditions: 144 h

In the case of `NS(=O)(=O)c1ccc(Nc2ncc3cc4n(c3n2)C2(CCCCC2)C(=O)NN4)cc1` [INX-315], the cell cycle effect [1] is reported as “potent G1 arrest”, the inhibition at 0.1 µM [2] is reported as -2% and the inhibition at 0.1 µM [3] is reported as 8%. The inhibition at 0.1 µM [4] was 17%, the inhibition at 0.1 µM [5] was 11% and the inhibition at 0.1 µM [6] was 14%. It also gave an inhibition at 0.1 µM [7] of 17%, an inhibition at 0.1 µM [8] of 2% and an inhibition at 0.1 µM [9] of 8%. The inhibition at 0.1 µM [10] was 35%, the inhibition at 0.1 µM [11] was 11% and the inhibition at 0.1 µM [12] was 12%. It also gave a pKa ([13]; read-out: pKa (acidic)) of 10.4, a pKa ([13]; read-out: pKa (basic)) of 5.08 and an inhibition at 0.1 µM [14] of 6%. It also gave an inhibition at 0.1 µM [15] of -11%, an inhibition at 0.1 µM [16] of 24% and an inhibition at 0.1 µM [17] of -7%. It also gave an IC50 [18] of 45 nmol/L, an IC50 [19] of 106 nmol/L and an IC50 [20] of 3470 nmol/L. For the same molecule, the IC50 ([21]; MCF7, read-out: IC50 (nmol/L): MCF7, Parent + abema: 500 nmol/L abemaciclib concurrently) was 515 nmol/L, the IC50 ([21]; MCF7, read-out: IC50 (nmol/L): MCF7, Parent cells in DMSO) was 267 nmol/L and the IC50 [22] was 7.4 nmol/L. It also gave an IC50 ([23]; read-out: IC50 (nmol/L): T47D, Parent + abema: 500 nmol/L abemaciclib concurrently) of 332 nmol/L, an IC50 ([23]; read-out: IC50 (nmol/L): T47D, Parent cells in DMSO) of 360 nmol/L and an IC50 ([24]; read-out: cellular IC50) of under 100 nM. The IC50 ([24]; read-out: cellular IC50, range) was 10 to 64 nM.
